The values below come from patent US20260015358A1, “BICYCLIC DERIVATIVES, COMPOSITIONS AND USES THEREOF” (Danatlas Pharmaceuticals Co., Ltd., priority 2023, published 2026).

SMILES strings stand for the structures.

Usually IC50 stands for the midpoint of a concentration-inhibition curve. High values mean weaker potency, low ones greater potency.

WRN [UniPro: Q14191 (WRN_HUMAN), N500-C946], sequence (Q14191 500-946): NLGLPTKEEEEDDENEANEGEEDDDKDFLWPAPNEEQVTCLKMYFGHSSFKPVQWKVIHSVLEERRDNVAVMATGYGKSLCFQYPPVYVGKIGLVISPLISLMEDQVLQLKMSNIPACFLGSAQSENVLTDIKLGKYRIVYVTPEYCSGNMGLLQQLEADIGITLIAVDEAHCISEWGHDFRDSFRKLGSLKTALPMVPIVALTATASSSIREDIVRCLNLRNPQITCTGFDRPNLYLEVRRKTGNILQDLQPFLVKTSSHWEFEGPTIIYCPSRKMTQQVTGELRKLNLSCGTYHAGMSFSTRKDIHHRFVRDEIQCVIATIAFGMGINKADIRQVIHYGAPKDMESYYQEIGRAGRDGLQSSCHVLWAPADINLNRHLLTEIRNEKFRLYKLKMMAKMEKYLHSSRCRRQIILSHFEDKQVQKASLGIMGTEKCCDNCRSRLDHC

The target in this experiment is WRN [UniPro: Q14191 (WRN_HUMAN), N500-C946] (Homo sapiens (Human), UniProt Q14191). Description: WRN unwinding assay (FORKF DNA, fluorescence). The class given is biochemical. The following applies: Table 14. Here is the method:
WRN unwinding assay was initiated to evaluate potential inhibitory effect of compounds for WEN helicase activity. WRN [UniPro: Q14191 (WRN_HUMAN), N500-C946] was expressed and purified in insect system and stored at −80° C. in aliquots. […] Compounds dissolved in DMSO (Sigma, D8418) were plated into a 96-well intermediate plate (BioFil, VWP-032-096) for 3-fold serial titration for 10 points using DMSO, and well-to-well transfer the titrated compounds into another 96-well intermediate plate including assay buffer in advance. Shake the 96-well intermediate plate at 600 rpm for 10 min. to fully mix. Specifically, a 3× working mixture of WRN was diluted to a concentration of 60 nM in assay buffer. […] After centrifuging at 1000 rpm and shaking at 500 rpm, the assay plate was pre-incubated for 30 min. Then, […] 3×FORKF DNA and ATP working mixture was dispensed into assay plate. Plate was sealed, centrifuged and incubated for an additional 40 min. at 25° C. […] Each concentration of compound was tested in duplicates in the assay plate. Average fluorescence signal of high control (Wells with 1% DMSO) was calculated as High Control (HC). Average fluorescence signal of low control (Wells with no WRN protein) was calculated as Low control (LC).
IC50 values were determined by fitting the data to the standard 4 parameters with Hill Slope using GraphPad Prism software.
As to `CCc1c(N2CCN(C(=O)CNC(=O)c3ccccc3F)CC2)c(=O)n2nc(C3=CCOCC3)nc2n1CC(=O)Nc1cc(C)no1` [Example 160, N-(2-(4-(2-(3,6-Dihydro-2H-pyran-4-yl)-5-ethyl-4-(2-((3-methylisoxazol-5-yl)amino)-2-oxoethyl)-7-oxo-4,7-dihydro-[1,2,4]triazolo[1,5-a]pyrimidin-6-yl)piperazin-1-yl)-2-oxoethyl)-2-fluorobenzamide], the IC50 is greater than 1 µM.
Under `CCc1c(N2CCN(C(=O)CNC(=O)c3ccc(Cl)cc3)CC2)c(=O)n2nc(C3=CCOCC3)nc2n1CC(=O)Nc1ccc(C(F)(F)F)cc1Cl` [Example 164, 4-Chloro-N-(2-(4-(4-(2-((2-chloro-4-(trifluoromethyl)phenyl)amino)-2-oxoethyl)-2-(3,6-dihydro-2H-pyran-4-yl)-5-ethyl-7-oxo-4,7-dihydro-[1,2,4]triazolo[1,5-a]pyrimidin-6-yl)piperazin-1-yl)-2-oxoethyl)benzamide] stands 0.1 to 1 µM; under `CCc1c(N2CCN(C(=O)CNC(=O)OC(C)C)CC2)c(=O)n2nc(C3=CCOCC3)nc2n1CC(=O)Nc1ccc(C(F)(F)F)cc1Cl` [Example 172, Isopropyl (2-(4-(4-(2-((2-chloro-4-(trifluoromethyl)phenyl)amino)-2-oxoethyl)-2-(3,6-dihydro-2H-pyran-4-yl)-5-ethyl-7-oxo-4,7-dihydro-[1,2,4]triazolo[1,5-a]pyrimidin-6-yl)piperazin-1-yl)-2-oxoethyl)carbamate], 0.1 to 1 µM; under `CCc1c(N2CCN(C(=O)CNC(=O)c3cccc(Cl)c3)CC2)c(=O)n2nc(C3=CCOCC3)nc2n1CC(=O)Nc1ccc(C(F)(F)F)cc1Cl` [Example 175, 3-Chloro-N-(2-(4-(4-(2-((2-chloro-4-(trifluoromethyl)phenyl)amino)-2-oxoethyl)-2-(3,6-dihydro-2H-pyran-4-yl)-5-ethyl-7-oxo-4,7-dihydro-[1,2,4]triazolo[1,5-a]pyrimidin-6-yl)piperazin-1-yl)-2-oxoethyl)benzamide], 0.1 to 1 µM.
In the case of `CCc1c(N2CCN(C(=O)CNC(=O)c3ccccc3)CC2)c(=O)n2nc(Br)nc2n1CC(=O)Nc1ccc(C(F)(F)F)cc1Cl` [Example 230, N-(2-(4-(2-Bromo-4-(2-((2-chloro-4-(trifluoromethyl)phenyl)amino)-2-oxoethyl)-5-ethyl-7-oxo-4,7-dihydro-[1,2,4]triazolo[1,5-a]pyrimidin-6-yl)piperazin-1-yl)-2-oxoethyl)benzamide], the IC50 fell in the range of 0.1 to 1 µM.
Turning to `CCc1c(N2CCN(C(=O)CNC(=O)c3ccccc3F)CC2)c(=O)n2nc(OCCOC)nc2n1CC(=O)Nc1ccc(C(F)(F)F)cc1Cl` [Example 240, N-(2-(4-(4-(2-((2-Chloro-4-(trifluoromethyl)phenyl)amino)-2-oxoethyl)-5-ethyl-2-(2-methoxyethoxy)-7-oxo-4,7-dihydro-[1,2,4]triazolo[1,5-a]pyrimidin-6-yl)piperazin-1-yl)-2-oxoethyl)-2-fluorobenzamide], the IC50 is greater than 1 µM.
Regarding `CCc1c(N2CCN(C(=O)CNC(=O)c3ccccc3F)CC2)c(=O)n2nc(N3CC(OC)C3)nc2n1CC(=O)Nc1ccc(C(F)(F)F)cc1Cl` [Example 242, N-(2-(4-(4-(2-((2-Chloro-4-(trifluoromethyl)phenyl)amino)-2-oxoethyl)-5-ethyl-2-(3-methoxyazetidin-1-yl)-7-oxo-4,7-dihydro-[1,2,4]triazolo[1,5-a]pyrimidin-6-yl)piperazin-1-yl)-2-oxoethyl)-2-fluorobenzamide], the IC50 lay within 0.1 to 1 µM.
Compound `CCc1c(N2CCN(C(=O)CNC(=O)c3ccccc3F)CC2)c(=O)n2nc(N3CC(C#N)C3)nc2n1CC(=O)Nc1ccc(C(F)(F)F)cc1Cl` [Example 243, N-(2-(4-(4-(2-((2-Chloro-4-(trifluoromethyl)phenyl)amino)-2-oxoethyl)-2-(3-cyanoazetidin-1-yl)-5-ethyl-7-oxo-4,7-dihydro-[1,2,4]triazolo[1,5-a]pyrimidin-6-yl)piperazin-1-yl)-2-oxoethyl)-2-fluorobenzamide] displayed a 50% inhibitory concentration (IC50) of 0.1 to 1 µM.
Compound `CCc1c(N2CCN(C(=O)CNC(=O)c3ccccc3F)CC2)c(=O)n2nc(N3CCOCC3)nc2n1CC(=O)Nc1ccc(C(F)(F)F)cc1Cl` [Example 245, N-(2-(4-(4-(2-((2-Chloro-4-(trifluoromethyl)phenyl)amino)-2-oxoethyl)-5-ethyl-2-morpholino-7-oxo-4,7-dihydro-[1,2,4]triazolo[1,5-a]pyrimidin-6-yl)piperazin-1-yl)-2-oxoethyl)-2-fluorobenzamide] yielded an IC50 of less than 0.1 µM.
The same measure for `CCc1c(N2CCN(C(=O)CNC(=O)c3ccccc3N3CCOCC3)CC2)c(=O)n2nc(N3CCOCC3)nc2n1CC(=O)Nc1ccc(C(F)(F)F)cc1Cl` [Example 247, N-(2-(4-(4-(2-((2-Chloro-4-(trifluoromethyl)phenyl)amino)-2-oxoethyl)-5-ethyl-2-morpholino-7-oxo-4,7-dihydro-[1,2,4]triazolo[1,5-a]pyrimidin-6-yl)piperazin-1-yl)-2-oxoethyl)-2-morpholinobenzamide]: 0.1 to 1 µM; for `CCc1c(N2CCN(C(=O)CNC(=O)c3c(O)cccc3F)CC2)c(=O)n2nc(C3=CCOCC3)nc2n1CC(=O)Nc1ccc(C(F)(F)F)cc1Cl` [Example 294, N-(2-(4-(4-(2-((2-Chloro-4-(trifluoromethyl)phenyl)amino)-2-oxoethyl)-2-(3,6-dihydro-2H-pyran-4-yl)-5-ethyl-7-oxo-4,7-dihydro-[1,2,4]triazolo[1,5-a]pyrimidin-6-yl)piperazin-1-yl)-2-oxoethyl)-2-fluoro-6-hydroxybenzamide]: 0.1 to 1 µM; for `CCc1c(N2CCN(C(=O)c3cc4c(OC)ccnc4[nH]3)CC2)c(=O)n2nc(C3=CCOCC3)nc2n1CC(=O)Nc1ccc(C(F)(F)F)cc1Cl` [Example 302, N-(2-Chloro-4-(trifluoromethyl)phenyl)-2-(2-(3,6-dihydro-2H-pyran-4-yl)-5-ethyl-6-(4-(4-methoxy-1H-pyrrolo[2,3-b]pyridine-2-carbonyl)piperazin-1-yl)-7-oxo-[1,2,4]triazolo[1,5-a]pyrimidin-4(7H)-yl)acetamide]: 0.1 to 1 µM.
Turning to `CCc1c(N2CCN(C(=O)c3nnc(-c4ccccc4F)[nH]3)CC2)c(=O)n2nc(C3=CCOCC3)nc2n1CC(=O)Nc1ccc(C(F)(F)F)cc1F` [Example 309, 2-(2-(3,6-Dihydro-2H-pyran-4-yl)-5-ethyl-6-(4-(5-(2-fluorophenyl)-4H-1,2,4-triazole-3-carbonyl)piperazin-1-yl)-7-oxo-[1,2,4]triazolo[1,5-a]pyrimidin-4(7H)-yl)-N-(2-fluoro-4-(trifluoromethyl)phenyl)acetamide], the IC50 lay in the range of 0.1 to 1 µM.
`CCc1c(N2CCN(C(=O)c3c[nH]c(=O)[nH]3)CC2)c(=O)n2nc(C3=CCOCC3)nc2n1CC(=O)Nc1ccc(C(F)(F)F)cc1Cl` [Example 316, N-(2-Chloro-4-(trifluoromethyl)phenyl)-2-(2-(3,6-dihydro-2H-pyran-4-yl)-5-ethyl-7-oxo-6-(4-(2-oxo-2,3-dihydro-1H-imidazole-4-carbonyl)piperazin-1-yl)-[1,2,4]triazolo[1,5-a]pyrimidin-4(7H)-yl)acetamide] came in with an IC50 of 0.1 to 1 µM.
